Results on twelve compounds are retold here after PubChem BioAssay (NCI).

The structures appear in SMILES notation.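 These data come from cells grown in 96-well plates and exposed to compound for 48 hours at five concentrations. TGI: total growth inhibition.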

Experiment in all cases: growth of human tumour cells (NCI), 48 h
Assay [1] has as its system SK-MEL-2 melanoma.
Assay [2] has as its system CAKI-1 renal.
The test system of assay [3] is COLO 205 colon.
Assay [4] concerns 786-0 renal.
In assay [5] the test system is SF-539 CNS.
Assay [6] deals with ACHN renal.
The subject of assay [7] is UO-31 renal.
Assay [8] concerns MALME-3M melanoma.
Assay [9] relates to OVCAR-3 ovarian.
Assay [10] deals with M14 melanoma.

As to `O=C(O)C1CC(c2ccc(F)cc2)=Nc2ccc(F)cc2S1` (stereo not given), the TGI in assay [1], in [2], in assay [3], in [4], in assay [5] and in assay [6] was greater than 100 µM each time. The TGI in assay [7], in assay [8], in assay [9] and in assay [10] was greater than 100 µM in each case.

Consider `O=C(CN1CCCCC1)CC(O)(C(F)(F)F)C(F)(F)F`, for which the TGI in assay [1], in assay [2], in assay [3], in [4], in assay [5] and in [6] was greater than 100 µM each time. In addition, the TGI in assay [7], in assay [8], in assay [9] and in [10] was greater than 100 µM each time.

For `CCCCOC(C)(C)/C=C/C(O)[C@](C)(O)[C@H]1[C@H](O)C[C@@]2(C)[C@@H]3CCc4c(cc(OC5OC(CO)C(O)C(O)C5O)c(O)c4C)C3(C)C(=O)C[C@]12C` (stereo not given in full), the TGI in assay [1], in assay [2], in assay [3], in assay [4], in assay [5] and in [6] was greater than 100 µM each time. In addition, the TGI in assay [7], in assay [8], in [9] and in assay [10] was greater than 100 µM throughout.

Take `CCOC1CC(=O)c2c(Br)sc(Br)c21` (stereo not given): the TGI worked out at 37.2 µM in [1]; 31 µM in assay [2]; 38.4 µM in assay [3]; 94.7 µM in assay [4]; 69.5 µM in assay [5]; 36.7 µM in assay [6]. The TGI in assay [7] was 33.5 µM; in [8], 40.8 µM; in [9], 28.5 µM; in assay [10], 36.2 µM.

Take `O=C(Nc1cccc2cnccc12)c1cc2c(cc1Cl)Sc1nccn1S2(=O)=O`: the TGI in [1] amounted to 32.2 µM; in assay [2], 91.5 µM; in assay [3] it was 30.8 µM; in assay [4], 33.1 µM; in assay [5], 59.3 µM; in assay [6], 77.9 µM. For the same compound, the TGI was 55.6 µM in [7], 38.7 µM in assay [8], 56.7 µM in assay [9] and greater than 100 µM in assay [10].

In the case of `O=C1NCCCc2nonc21`, the TGI in assay [1], in [2], in assay [3], in assay [4], in assay [5] and in [6] was greater than 100 µM in each case. The TGI in [7], in assay [8], in assay [9] and in assay [10] was greater than 100 µM throughout.

In the case of `Cc1cc(C)c2c(=O)n(CN3CC4Nc5ccccc5C4C3)sc2n1` (stereo not given), the TGI came out at 54.2 µM in [1]; 57.6 µM in [2]; 71.5 µM in assay [3]; 33.8 µM in [4]; 39.8 µM in [5]; 33.8 µM in [6]. Besides, the TGI in assay [7] turned out to be 32.5 µM; in [8] it was 27.8 µM; in [9] it was 98.5 µM; in [10] it was 63.1 µM.

For the compound `CCC12C[N+]3([O-])CCc4c([nH]c5ccccc45)C(C(=O)OC)(c4cc5c(cc4OC)N(C)C4C(O)(C(=O)OC)C(OC(C)=O)C6(CC)C=CCN7CCC54C76)CC(C3)C1O2` (stereo not given), the TGI in assay [1] is 0.649 µM; in assay [2] it was 30.1 µM; in [3], 4.44 µM; in [4], 7.95 µM; in assay [5] it was 0.821 µM; in assay [6], 31.9 µM. The TGI in assay [7] is 14.4 µM; in assay [8], 22.9 µM; in [9], 1.3 µM; in [10], 17.8 µM.

On to `O=c1c2ncn(C3CC(O)C(CO)O3)c2nnn1Cc1ccccc1[N+](=O)[O-]` (stereo not given), for which the TGI in assay [1], in [2], in assay [3], in assay [4], in assay [5] and in assay [6] was greater than 100 µM each time. The TGI in assay [7], in assay [8], in assay [9] and in assay [10] was greater than 100 µM throughout.

With `O=C(O)[C@@H]1C[C@@H](O)CN1C(=O)OCc1ccccc1`, the TGI in assay [1], in [2], in assay [3], in [4], in [5] and in assay [6] was greater than 100 µM each time. The TGI in assay [7], in [8], in assay [9] and in assay [10] was greater than 100 µM in each case.

For `CCN(CC)CCNc1ccc2nnn3c4ccc(OC)cc4c(=O)c1c23`, the TGI in assay [1] came out at 27.4 µM; in [2], 27.6 µM; in assay [3], 20.4 µM; in assay [4], 17.9 µM; in assay [5], 17.2 µM; in [6], 21.7 µM. Further, the TGI turned out to be 22.2 µM in [7], 22.3 µM in [8], 31.4 µM in assay [9] and 23.5 µM in assay [10].

On to `Nc1c2ccccc2nc2c1ccc1ncccc12`, for which the TGI in assay [1] was 42.1 µM; in [2] it was 92.1 µM; in assay [3], greater than 100 µM; in [4] it was greater than 100 µM; in assay [5], 49.9 µM; in [6], 41 µM. Further, the TGI was 40.2 µM in assay [7], 27 µM in assay [8], greater than 100 µM in assay [9] and 43 µM in [10].
